Measurements reported in patent publication US12559492B2, “BRAF degraders” (C4 Therapeutics, Inc., priority 2020, dated 2026).

Target: BRAF^V600E protein (Homo sapiens, UniProt P15056, V600E)
Assay: HiBiT cellular BRAF V600E degradation assay
Assay type: cell-based
Conditions: 24 h incubation; for DC50: A375.10 cells (HiBiT tag knocked in at N-terminal of BRAF V600E), concentration at which 50% of total cellular BRAF V600E is degraded; for Emax: read-out: HiBit 24 h Emax
Excerpt: DMEM no-phenol red medium supplemented with L-glutamine was purchased from (Corning). Fetal bovine serum (FBS) was purchased from Gibco (Grand Island, NY, USA). Nano-Glo® HiBiT Lytic Assay Buffer & Reagents were purchased from Promega (Madison, WI, USA). […] Cell culture flasks and 384-well black flat-bottom polystyrene TC-treated microplates were acquired from Corning (Corning, NY, USA).
HiBiT Cellular BRAFv^600E Degradation Assay
Prior to the assay, the A375.10 cell line is maintained in DMEM no-phenol red medium supplemented with 10% fetal bovine serum (FBS). […] Briefly, test compounds were added to the 384-well plate from a top concentration of 10 μM with 11 half log dilutions of compound, plated in duplicate. Then, 30 uL of a suspension of A375.10 cell lines was dispensed into columns 1-24 of the 384-well plates at a cell density of 7500 cells per well. The plates were kept at 37° C. with 5% CO2 for the duration of the assay (6 or 24 hr). After the desired incubation time with compound, 30 uL of Nano-Glo® HiBiT Lytic Buffer containing LgBiT protein (diluted 1:100) and luminescence substrate (diluted 1:50) were added to the cells in columns 1-23 of the assay plate. The plate was the incubated for 30 min on the bench at room temperature. Finally, HiBiT luminescence signal was acquired on EnVision™ Multilabel Reader (PerkinElmer, Santa Clara, CA, USA).
Quantification of luminescence responses measured in the presence of compound were normalized to a high signal/no degradation control (untreated cells+lytic detection reagent) and a low signal/full degradation control (untreated cells, no lytic detection reagent). Data were analyzed with a 4-parameter logistic fit to generate sigmoidal dose-response curves. […] The Emax, or maximum effect of each compound, represents the amount of residual protein remaining in the cell following compound treatment.

[1] = A375.10 cells, Emax = amount of residual protein remaining in the cell after compound treatment

BRAF^V600E protein, sequence (P15056 whole entry V600E): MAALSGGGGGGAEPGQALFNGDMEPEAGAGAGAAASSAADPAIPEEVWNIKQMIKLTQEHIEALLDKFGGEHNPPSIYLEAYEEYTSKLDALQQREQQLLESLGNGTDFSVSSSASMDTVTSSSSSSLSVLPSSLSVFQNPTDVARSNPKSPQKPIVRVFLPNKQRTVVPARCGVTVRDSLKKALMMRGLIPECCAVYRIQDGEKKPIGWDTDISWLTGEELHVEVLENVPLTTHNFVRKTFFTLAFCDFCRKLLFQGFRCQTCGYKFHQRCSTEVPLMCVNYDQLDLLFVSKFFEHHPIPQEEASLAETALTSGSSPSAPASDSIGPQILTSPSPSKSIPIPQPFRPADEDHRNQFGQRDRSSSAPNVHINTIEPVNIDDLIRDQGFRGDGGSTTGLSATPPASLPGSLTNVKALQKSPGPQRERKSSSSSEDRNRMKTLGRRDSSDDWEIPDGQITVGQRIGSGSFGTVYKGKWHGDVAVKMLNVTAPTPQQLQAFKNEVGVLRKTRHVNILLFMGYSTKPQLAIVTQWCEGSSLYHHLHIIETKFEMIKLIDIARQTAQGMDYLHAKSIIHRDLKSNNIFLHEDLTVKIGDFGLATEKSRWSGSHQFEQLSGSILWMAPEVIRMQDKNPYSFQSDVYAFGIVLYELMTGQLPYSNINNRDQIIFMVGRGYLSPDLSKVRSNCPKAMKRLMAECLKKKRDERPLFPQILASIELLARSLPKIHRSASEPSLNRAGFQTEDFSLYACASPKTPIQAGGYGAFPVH

DC50 [nM] | Emax [1] [%] | HiBit 24 h Emax [1] [%] | SMILES
10.6 | 9.74 |  | CCN(C)S(=O)(=O)Nc1ccc(F)c(C(=O)c2c[nH]c3ncc(-c4ccc(N5CCN(C(=O)CN6CCC(c7ccc(OC8CCC(=O)NC8=O)cc7)CC6)CC5)cc4)cc23)c1F (centres unmarked) [Example A14, 5-[4-[4-[2-[4-[4-(2,6-Dioxopiperidin-3-yl)oxyphenyl]piperidin-1-yl]acetyl]piperazin-1-yl]phenyl]-3-[3-[[ethyl(methyl)sulfamoyl]amino]-2,6-difluorobenzoyl]-1H-pyrrolo[2,3-b]pyridine]
30 |  | 13 | CCN(C)S(=O)(=O)Nc1ccc(F)c(C(=O)c2c[nH]c3ncc(-c4ccc(CN5CCN(C(=O)CN6CCN(c7ccc(NC8CCC(=O)NC8=O)cc7)CC6)CC5)cc4)cc23)c1F.O=C(O)C(F)(F)F (centres unmarked) [Example A24, 5-[4-[[4-[2-[4-[4-[(2,6-Dioxopiperidin-3-yl)amino]phenyl]piperazin-1-yl]acetyl]piperazin-1-yl]methyl]phenyl]-3-[3-[[ethyl(methyl)sulfamoyl]amino]-2,6-difluorobenzoyl]-1H-pyrrolo[2,3-b]pyridine; 2,2,2-trifluoroacetic acid]
10.8 | 11.7 |  | CCN(C)S(=O)(=O)Nc1ccc(F)c(C(=O)c2c[nH]c3ncc(-c4cnc(N5CCN(C(=O)CC6(OP(=O)(O)O)CCN(c7ccc(C8CCC(=O)NC8=O)cc7F)CC6)CC5)nc4)cc23)c1F (centres unmarked) [Example 158e, [1-[4-(2,6-dioxo-3-piperidyl)-2-fluoro-phenyl]-4-[2-[4-[5-[3-[3-[[ethyl(methyl)sulfamoyl]amino]-2,6-difluoro-benzoyl]-1H-pyrrolo[2,3-b]pyridin-5-yl]pyrimidin-2-yl]piperazin-1-yl]-2-oxo-ethyl]-4-piperidyl]dihydrogen phosphate]
5 | 12 |  | O=C1CCC(Nc2ccc(C3CCN(CC(=O)N4CCN(c5ccc(-c6cnc7[nH]cc(C(=O)c8c(F)ccc(NS(=O)(=O)N9CCCC9)c8F)c7c6)cc5)CC4)CC3)cc2)C(=O)N1 (centres unmarked) [Example A48, N-[3-[5-[4-[4-[2-[4-[4-[(2,6-Dioxopiperidin-3-yl)amino]phenyl]piperidin-1-yl]acetyl]piperazin-1-yl]phenyl]-1H-pyrrolo[2,3-b]pyridine-3-carbonyl]-2,4-difluorophenyl]pyrrolidine-1-sulfonamide]
275 | 24 |  | CCN(C)S(=O)(=O)Nc1ccc(F)c(C(=O)c2c[nH]c3ncc(-c4cnc(N5CCC(NC(=O)CN6CCC(c7ccc(OC8CCC(=O)NC8=O)cn7)CC6)CC5)nc4)cc23)c1F (centres unmarked) [Example A60, 2-[4-[5-(2,6-Dioxopiperidin-3-yl)oxypyridin-2-yl]piperidin-1-yl]-N-[1-[5-[3-[3-[[ethyl(methyl)sulfamoyl]amino]-2,6-difluorobenzoyl]-1H-pyrrolo[2,3-b]pyridin-5-yl]pyrimidin-2-yl]piperidin-4-yl]acetamide;formic acid]
6.97 | 8.89 |  | CCN(C)S(=O)(=O)Nc1ccc(F)c(C(=O)c2c[nH]c3ncc(C#Cc4ccc(C(=O)N5CCC(N6CCC(c7ccc(NC8CCC(=O)NC8=O)cc7)CC6)CC5)cc4)cc23)c1F (centres unmarked) [Example A83, 5-[2-[4-[4-[4-[4-[(2,6-Dioxopiperidin-3-yl)amino]phenyl]piperidin-1-yl]piperidine-1-carbonyl]phenyl]ethynyl]-3-[3-[[ethyl(methyl)sulfamoyl]amino]-2,6-difluorobenzoyl]-1H-pyrrolo[2,3-b]pyridine]

Second part, the molecule before the results:

SMILES | DC50 [nM] | Emax [1] [%] | HiBit 24 h Emax [1] [%]
CCN(C)S(=O)(=O)Nc1ccc(F)c(C(=O)c2c[nH]c3ncc(-c4cnc(N5CCN(C(=O)CC6(O)CCN(c7ccc(NC8CCC(=O)NC8=O)cn7)CC6)CC5)nc4)cc23)c1F (centres unmarked) [Example 57, 5-[2-[4-[2-[1-[5-[(2,6-dioxo-3-piperidyl)amino]-2-pyridyl]-4-hydroxy-4-piperidyl]acetyl]piperazin-1-yl]pyrimidin-5-yl]-3-[3-[[ethyl(methyl)sulfamoyl]amino]-2,6-difluoro-benzoyl]-1H-pyrrolo[2,3-b]pyridine] | 10.1 | 18.2 | 
CCN(C)S(=O)(=O)Nc1ccc(F)c(C(=O)c2c[nH]c3ncc(-c4ccc(N5CCN(C(=O)CC6(O)CCN(c7ccc(C8CCC(=O)NC8=O)cc7F)CC6)CC5)cc4)cc23)c1F (centres unmarked) [Example 175, 5-[4-[4-[2-[1-[4-(2,6-dioxo-3-piperidyl)-2-fluoro-phenyl]-4-hydroxy-4-piperidyl]acetyl]piperazin-1-yl]phenyl]-3-[3-[[ethyl(methyl)sulfamoyl]amino]-2,6-difluoro-benzoyl]-1H-pyrrolo[2,3-b]pyridine] | 7.12 | 9.59 | 
CC(C)S(=O)(=O)Nc1ccc(F)c(C(=O)c2c[nH]c3ncc(-c4cnc(N5CCN(C(=O)CN6CCC(c7ccc8c(N9CCC(=O)NC9=O)nn(C)c8c7)CC6)CC5)nc4)cc23)c1F [Example 10, N-[3-[5-[2-[4-[2-[4-[3-(2,4-dioxohexahydropyrimidin-1-yl)-1-methyl-indazol-6-yl]-1-piperidyl]acetyl]piperazin-1-yl]pyrimidin-5-yl]-1H-pyrrolo[2,3-b]pyridine-3-carbonyl]-2,4-difluoro-phenyl]propane-2-sulfonamide] | 4.45 | 8.46 | 
CCN(C)S(=O)(=O)Nc1ccc(F)c(C(=O)c2c[nH]c3ncc(-c4cnc(N5CCN(C(=O)CC6CCN(c7ccc(NC8CCC(=O)NC8=O)cc7F)C6)CC5)nc4)cc23)c1F (centres unmarked) [Example 48, 5-[2-[4-[2-[1-[4-[(2,6-dioxo-3-piperidyl)amino]-2-fluoro-phenyl]pyrrolidin-3-yl]acetyl]piperazin-1-yl]pyrimidin-5-yl]-3-[3-[[ethyl(methyl)sulfamoyl]amino]-2,6-difluoro-benzoyl]-1H-pyrrolo[2,3-b]pyridine] | 23 | 15 | 
CC(C)S(=O)(=O)Nc1ccc(F)c(C(=O)c2c[nH]c3ncc(-c4ccc(N5CCN(C(=O)CN6CCC(c7ccc(NC8CCC(=O)NC8=O)cc7F)CC6)CC5)nc4)cc23)c1F (centres unmarked) [Example 12, N-[3-[5-[6-[4-[2-[4-[4-[(2,6-dioxo-3-piperidyl)amino]-2-fluoro-phenyl]-1-piperidyl]acetyl]piperazin-1-yl]-3-pyridyl]-1H-pyrrolo[2,3-b]pyridine-3-carbonyl]-2,4-difluoro-phenyl]propane-2-sulfonamide] | 9.73 | 8.03 | 
CCN(C)S(=O)(=O)Nc1ccc(F)c(C(=O)c2c[nH]c3ncc(-c4cnc(N5CCN(C(=O)CN6CCC(c7c(F)cc(NC8CCC(=O)NC8=O)cc7F)CC6)CC5)nc4)cc23)c1F (centres unmarked) [Example 46, 5-[2-[4-[2-[4-[4-[(2,6-dioxo-3-piperidyl)amino]-2,6-difluoro-phenyl]-1-piperidyl]acetyl]piperazin-1-yl]pyrimidin-5-yl]-3-[3-[[ethyl(methyl)sulfamoyl]amino]-2,6-difluoro-benzoyl]-1H-pyrrolo[2,3-b]pyridine] | 9.1 | 7.88 | 
CCN(C)S(=O)(=O)Nc1cccc(C(=O)c2c[nH]c3ncc(-c4ccc(N5CCN(C(=O)CC6(O)CCN(c7ccc(NC8CCC(=O)NC8=O)cc7Cl)CC6)CC5)nc4)cc23)c1F (centres unmarked) [Example 156, 5-[6-[4-[2-[1-[2-chloro-4-[(2,6-dioxo-3-piperidyl)amino]phenyl]-4-hydroxy-4-piperidyl]acetyl]piperazin-1-yl]-3-pyridyl]-3-[3-[[ethyl(methyl)sulfamoyl]amino]-2-fluoro-benzoyl]-1H-pyrrolo[2,3-b]pyridine] | 6.82 | 9.35 | 
